IC50 data for 19 molecules are collected here from patent publication US11345699B2, “Apoptosis signal-regulating kinase 1 inhibitors and methods of use thereof” (Enanta Pharmaceuticals, Inc., priority 2018, dated 2022).

The target of this experiment is ASK1 (Homo sapiens (Human), UniProt Q99683). The experiment can be described thus: HTRF KinEASE Assay (TR-FRET), inhibition of ASK1. The class given is biochemical. The conditions noted are these: ASK1 kinase, 100 μM ATP, 1 μM STK3 peptide substrate, compound 0 to 10 μM. The procedure: Assay HTRF® KinEASE™ Assay
ASK1, sequence (Q99683 whole entry): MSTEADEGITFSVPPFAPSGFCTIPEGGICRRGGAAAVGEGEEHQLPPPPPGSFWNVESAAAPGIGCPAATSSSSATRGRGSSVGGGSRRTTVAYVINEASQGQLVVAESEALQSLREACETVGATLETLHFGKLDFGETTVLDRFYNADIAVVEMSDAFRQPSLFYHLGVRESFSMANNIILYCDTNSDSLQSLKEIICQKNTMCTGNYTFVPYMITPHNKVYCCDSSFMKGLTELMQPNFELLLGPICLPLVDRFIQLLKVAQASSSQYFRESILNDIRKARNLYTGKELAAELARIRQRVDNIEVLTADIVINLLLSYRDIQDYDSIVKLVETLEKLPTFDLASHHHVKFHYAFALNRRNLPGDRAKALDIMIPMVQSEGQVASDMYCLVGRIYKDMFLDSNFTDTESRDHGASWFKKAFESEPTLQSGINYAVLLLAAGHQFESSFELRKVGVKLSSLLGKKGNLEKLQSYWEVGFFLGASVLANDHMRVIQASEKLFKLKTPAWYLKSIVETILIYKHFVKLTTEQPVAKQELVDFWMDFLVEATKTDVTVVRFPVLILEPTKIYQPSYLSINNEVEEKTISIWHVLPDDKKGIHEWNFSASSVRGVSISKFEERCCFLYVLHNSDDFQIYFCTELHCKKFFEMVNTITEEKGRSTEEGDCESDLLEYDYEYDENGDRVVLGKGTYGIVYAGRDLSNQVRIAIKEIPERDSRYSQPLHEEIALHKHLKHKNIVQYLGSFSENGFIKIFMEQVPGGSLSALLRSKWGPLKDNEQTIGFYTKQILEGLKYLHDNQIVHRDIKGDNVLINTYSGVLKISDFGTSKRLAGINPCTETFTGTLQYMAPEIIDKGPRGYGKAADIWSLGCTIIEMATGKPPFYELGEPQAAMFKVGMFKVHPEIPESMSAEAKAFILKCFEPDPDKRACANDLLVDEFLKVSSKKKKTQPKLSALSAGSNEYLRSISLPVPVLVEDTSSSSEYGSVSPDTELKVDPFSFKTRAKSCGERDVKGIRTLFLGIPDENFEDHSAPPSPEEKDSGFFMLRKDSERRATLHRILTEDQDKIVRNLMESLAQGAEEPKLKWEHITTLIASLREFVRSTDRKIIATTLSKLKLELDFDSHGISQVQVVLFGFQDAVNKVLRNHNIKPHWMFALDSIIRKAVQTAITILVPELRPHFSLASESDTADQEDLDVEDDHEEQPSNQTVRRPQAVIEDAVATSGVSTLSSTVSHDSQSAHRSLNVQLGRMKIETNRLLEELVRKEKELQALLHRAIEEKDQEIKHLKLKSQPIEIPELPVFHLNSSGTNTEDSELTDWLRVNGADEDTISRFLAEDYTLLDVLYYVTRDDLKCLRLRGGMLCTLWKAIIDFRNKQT
ASK1 was purchased from Thermofisher (Catalogue #PV4011), ATP was purchased from Sigma (Catalogue #A7699), HTRF® KinEASE™ Assay System was obtained from Cisbio (Bedford, Mass.). ½ Area plate was purchased from Perkin Elmer (Catalogue ##6005560). HTRF® KinEASE™-STK is a generic method for measuring serine/threonine kinase activities using a time-resolved fluorescence resonance energy transfer (TR-FRET) immunoassay. The IC50 value for each compound was determined in the presence of compound (various concentration from 0 to 10 μM) and a fixed amount of ATP and peptide substrates. The test compound, 1 μM STK3 peptide substrate, and […] of ASK1 kinase are incubated with kinase reaction buffer containing 50 mM HEPES Ph 7.5, 0.01% BRIJ-35, 10 mM MgCl2, and 1 mM EGTA for 30 minutes. 100 μM ATP is added to start kinase reaction and incubated for 3 hours. The STK3-antibody labeled with Eu^3+-Cryptate and 125 nM streptavidin-XL665 are mixed in a single addition with stop reagents provided by the Cisbio kit used to stop the kinase reaction. Fluorescence is detected using an Envision Multilabeled 2014 reader from PerkinElmer. The Fluorescence is measured at 615 nm (Cryptate) and 665 nm (XL665) and a ratio of 665 nm/615 nm is calculated for each well. The resulting TR-FRET is proportional to the phosphorylation level. Staurosporine was used as the positive control. IC50 was determined by Xlfit 5.3.
By using above method, the inhibition of ASK1 was evaluated for the compounds of Formula (I). Example numbers correspond to those in Table 5.
As usually defined, the IC50 is the concentration that gives 50% inhibition. Lower therefore signals higher potency. For the molecule `CCOC(=O)N1CCc2cnc(C(=O)Nc3cccc(-c4nnnn4[C@H]4CCC[C@@H]4O)n3)cc2C1` [Example 145], the IC50 was in the range of 10 to 100 nM. The value for `CCOC(=O)N1CCc2cc(F)c(C(=O)Nc3cccc(-c4nncn4[C@H](C)CF)n3)cc2C1` [Example 103] was 1.25 to 10 nM.

Take `COc1cc2c(cc1C(=O)Nc1cccc(-c3nnnn3[C@H](C)CO)n1)CN(c1c(N)c(=O)c1=O)CC2` [Example 98, (R)-2-(2-amino-3,4-dioxocyclobut-1-en-1-yl)-N-(6-(1-(1-hydroxypropan-2-yl)-1H-tetrazol-5-yl)pyridin-2-yl)-6-methoxy-1,2,3,4-tetrahydroisoquinoline-7-carboxamide]: the IC50 lay in the range of 1.25 to 10 nM. The value for `CC(C)n1cnnc1-c1cccc(NC(=O)c2cc3c(cn2)CCN(S(=O)(=O)C2CC2)C3)n1` [Example 13, 6-(cyclopropylsulfonyl)-N-(6-(4-isopropyl-4H-1,2,4-triazol-3-yl)pyridin-2-yl)-5,6,7,8-tetrahydro-2,6-naphthyridine-3-carboxamide] was 1.25 to 10 nM; that for `COc1cc2c(cc1C(=O)Nc1cccc(-c3nnnn3[C@H](C)CO)n1)CN(c1ncc(F)cn1)CC2` [Example 152, (R)-2-(5-fluoropyrimidin-2-yl)-N-(6-(1-(1-hydroxypropan-2-yl)-1H-tetrazol-5-yl)pyridin-2-yl)-6-methoxy-1,2,3,4-tetrahydroisoquinoline-7-carboxamide] was 1.25 to 10 nM. The value for `COc1cc2c(cc1C(=O)Nc1cccc(-c3nnnn3[C@H](C)CO)n1)CN(C(=O)OC1CCOC1)CC2` (stereo partly shown) [Example 143] was 1.25 to 10 nM. In turn, `C[C@H](CO)n1nnnc1-c1cccc(NC(=O)c2cc3c(cc2F)CCN(S(=O)(=O)C2CC2)C3)n1` [Example 119] had an IC50 of 10 to 100 nM. For `CCOC(=O)N1CCc2cc(OC)c(C(=O)Nc3cccc(-c4nncn4C(C)C)n3)cc2C1` [Example 17, ethyl 7-((6-(4-isopropyl-4H-1,2,4-triazol-3-yl)pyridin-2-yl)carbamoyl)-6-methoxy-3,4-dihydroisoquinoline-2(1H)-carboxylate], the IC50 fell in the range of 1.25 to 10 nM.

The molecule `COc1cc2c(cc1C(=O)Nc1cccc(-c3nnnn3[C@H](C)CO)n1)CN(C(=O)c1cc3ccccc3cn1)CC2` [Example 102] came in with an IC50 of 1.25 to 10 nM. The value for `C[C@H](CO)n1nnnc1-c1cccc(NC(=O)c2cc3c(cc2F)CCN(S(=O)(=O)c2ccc(F)cc2)C3)n1` [Example 137] was 10 to 100 nM; that for `COc1cc2c(cc1C(=O)Nc1cccc(-c3nnnn3[C@H](C)CO)n1)CN(C(=O)C1(O)CC1)CC2` [Example 114] was less than 1.25 nM.

`COc1cc2c(cc1C(=O)Nc1cccc(-c3nnnn3[C@H](C)CO)n1)CN(C(=O)OC[C@@H](O)C(F)(F)F)CC2` [Example 141] came in with an IC50 of less than 1.25 nM. Regarding `COc1cc2c(cc1C(=O)Nc1cccc(-c3nncn3C(C)C)n1)CN(C(=O)[C@@H](O)CC(C)C)CC2` [Example 128], the IC50 was less than 1.25 nM.

In turn, `C[C@H](CO)n1nnnc1-c1cccc(NC(=O)c2cc3c(cc2F)CCN(C(=O)N2CCC2)C3)n1` [Example 135] yielded an IC50 of 1.25 to 10 nM. In turn, `CCOC(=O)N1CCc2cc(F)c(C(=O)Nc3cccc(-c4nnnn4[C@H](C)CO)n3)cc2C1` [Example 109] returned a concentration for half-maximal inhibition (IC50) of 1.25 to 10 nM. With `COc1cc2c(cc1C(=O)Nc1cccc(-c3nnnn3[C@H](C)CO)n1)CN(c1cnc(F)cn1)CC2` [Example 154, (R)-2-(5-fluoropyrazine-2-yl)-N-(6-(1-(1-hydroxypropan-2-yl)-1H-tetrazol-5-yl)pyridin-2-yl)-6-methoxy-1,2,3,4-tetrahydroisoquinoline-7-carboxamide], the IC50 lay within 1.25 to 10 nM. The value for `COCCOC(=O)N1CCc2cc(OC)c(C(=O)Nc3cccc(-c4nnnn4[C@H](C)CO)n3)cc2C1` [Example 96] was less than 1.25 nM; that for `COc1cc2c(cc1C(=O)Nc1cccc(-c3nnnn3[C@H](C)CO)n1)CN(C(=O)C(C)(C)O)CC2` [Example 115] was less than 1.25 nM; that for `COc1cc2c(cc1C(=O)Nc1cccc(-c3nncn3C(C)C)n1)CN(C(=O)CN1CCOC1=O)CC2` [Example 148] was less than 1.25 nM.
